Experimental findings from publication PMC3240935, “Development and characterization of a novel C-terminal inhibitor of Hsp90 in androgen dependent and independent prostate cancer cells” (2011) are described below.

A word on the Kd: it is the free concentration of one partner at which half of the binding sites on the other are occupied at equilibrium, for simple one-to-one binding. Lower therefore signals tighter binding.

The assay has as its target T1, Hsp90β (Homo sapiens, UniProt P08238).
T1 construct: gene HSP90AB1; recombinant Hsp90β purified from baculovirus infected Sf9 cells
In words: SPR, immobilized Hsp90β, binding curve fit (kinetic Kd […]). (In SPR one partner is held on a chip, and binding of the other changes the refractive index at the surface.)

T1 sequence (P08238 2-724): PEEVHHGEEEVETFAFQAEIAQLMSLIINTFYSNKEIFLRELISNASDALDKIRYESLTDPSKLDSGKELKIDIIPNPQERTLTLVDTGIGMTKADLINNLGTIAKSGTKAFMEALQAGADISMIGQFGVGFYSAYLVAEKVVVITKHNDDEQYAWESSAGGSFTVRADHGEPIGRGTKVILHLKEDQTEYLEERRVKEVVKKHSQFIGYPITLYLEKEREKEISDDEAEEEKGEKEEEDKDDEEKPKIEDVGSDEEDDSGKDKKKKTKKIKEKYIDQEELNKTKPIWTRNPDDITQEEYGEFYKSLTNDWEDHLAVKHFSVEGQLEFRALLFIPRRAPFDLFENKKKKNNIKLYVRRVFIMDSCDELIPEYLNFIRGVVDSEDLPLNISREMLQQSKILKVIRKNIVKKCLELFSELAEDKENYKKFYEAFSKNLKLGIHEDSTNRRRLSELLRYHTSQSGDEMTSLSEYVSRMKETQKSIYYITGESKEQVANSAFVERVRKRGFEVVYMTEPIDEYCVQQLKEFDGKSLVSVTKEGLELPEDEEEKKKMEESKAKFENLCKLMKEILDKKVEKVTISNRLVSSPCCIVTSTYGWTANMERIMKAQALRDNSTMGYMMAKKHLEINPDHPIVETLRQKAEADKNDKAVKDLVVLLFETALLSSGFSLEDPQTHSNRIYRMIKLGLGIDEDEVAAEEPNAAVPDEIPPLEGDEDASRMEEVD

In turn, KU174 registered a Kd of 78 µM.
